The results in this text go back to patent US10774051B2, “6-membered heterocyclic derivatives and pharmaceutical composition comprising the same” (Shionogi & Co., Ltd., priority 2015, dated 2020).

Where only a bound is given, the exact number is not on record here.

One experiment has as its target human P2X7 receptor (Homo sapiens, UniProt Q99572, R270H/Y155H). Nature of the experiment: Evaluation of human P2X7 receptor inhibitory activity (Yo-Pro uptake, BzATP stimulation, FLIPR TETRA). Format: cell-based. The following applies: 1321N1 cells stably expressing human P2X7 receptor; BzATP stimulation, Yo-Pro uptake; read-out: IC50 (antagonistic activity for the human P2X7 receptor). The method, boiled down:
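Yo-Pro dye uptake triggered by BzATP was monitored by FLIPR in human P2X7-transfected 1321N1 cells (SNP variant) in HEPES-buffered HBSS, pH 7.4-7.5. Compound was dispensed 8 min post-stimulation, then signal read for 20 min; IC50 derived logistically from inhibition of the fluorescence range.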
With `COc1cn(Cc2ccc(F)c(Cl)c2)c(Nc2cc3sc(C)nc3cc2C)nc1=O` [Compound I-0033], the IC50 is 49 nM.

As to `COc1cn(Cc2cc(C)cc(F)c2)c(Nc2cccc(Cl)c2C)nc1=O` [Compound I-0425], the IC50 came to 19 nM.

On to `Cc1cc(C)c(Nc2nc(=O)c(C(=O)O)cn2Cc2ccccc2)cc1C` [Compound I-0205], for which the IC50 amounted to 91 nM.

As to `Cc1c(Cl)cccc1Nc1cc(=O)n(C)c(=O)n1Cc1ccccc1` [Compound I-0990], the IC50 amounted to 320 nM.

Take `Cc1ccc(N2CCCS2(=O)=O)cc1Nc1nc(=O)c(F)cn1Cc1ccc(F)cc1` [Compound I-0207]: the IC50 was determined as 9 nM.

Staying with this experiment, now noted: 1321N1 cells stably expressing human P2X7 receptor; BzATP stimulation, Yo-Pro uptake; read-out: IC50 (antagonistic activity for the human P2X7 receptor), class symbol.
For `CCc1ccc(Nc2nc(=O)c(OC)cn2Cc2ccccc2)c(CC)c1` [Compound I-0210], the IC50 was in the range of 10 to 100 nM.

Turning to `Cc1c(Cl)cccc1Nc1nc(=O)c(-c2ccccc2)cn1Cc1ccccc1` [Compound I-0028], the IC50 lay within 500 to 1000 nM.

Turning to `COc1cn(Cc2ccc(F)c(F)c2)c(Nc2cccc(C(F)(F)F)c2C)nc1=O` [Compound I-0467], the 50% inhibitory concentration (IC50) is less than 10 nM.

For the molecule `COc1cn(Cc2cccc(F)c2)c(Nc2cccc(Cl)c2C)nc1=O` [Compound I-0039], the IC50 fell in the range of 10 to 100 nM.

On to `COc1ccc(Nc2nc(=O)c(OC)cn2Cc2cccc(Cl)c2)c(C)c1` [Compound I-0234], for which the IC50 lay within 10 to 100 nM.

Turning to `Cc1c(Cl)cccc1Nc1nc(=O)c(C(=O)N(C)C)cn1Cc1ccccc1` [Compound I-0100], the 50% inhibitory concentration (IC50) was in the range of 100 to 500 nM.

In the case of `Cc1cc2c(cc1Nc1nc(=O)c(F)cn1Cc1cccc(Cl)c1)OCCO2` [Compound I-0368], the IC50 is 10 to 100 nM.

`COc1ccc(Cl)c(Nc2nc(=O)c(OC)cn2Cc2ccc(F)c(Cl)c2)c1` [Compound I-0544]: the half-inhibitory concentration (IC50) was 10 to 100 nM.

The experiment is the same for the next values; noted with them: antagonistic activity for the human P2X7 receptor; read-out: IC50.
Consider `COc1cc(Cl)c(Nc2nc(=O)c(C)cn2Cc2cc(F)c(F)c(F)c2)cc1OC` [Compound I-1139], for which the IC50 lay in the range of 10 to 100 nM.

As for `COc1cn(Cc2cc(F)cc(F)c2)c(Nc2cc(-c3ccccc3)ccc2C)nc1=O` [Compound I-0829], the IC50 lay in the range of 10 to 100 nM.

In the case of `COc1cnc(Nc2cccc(Cl)c2C)n(Cc2ccc(F)c(F)c2)c1=O` [Compound I-0973], the IC50 was 100 to 500 nM.

For `COc1cn(Cc2ccc(F)c(Cl)c2)c(Nc2ccc3c(c2C)OC(F)(F)C(F)(F)O3)nc1=O` [Compound I-0824], the IC50 was in the range of 10 to 100 nM.

Consider `COc1ccc(Nc2nc(=O)c(OC)cn2Cc2cc(F)c(F)c(F)c2)c(Cl)c1` [Compound I-0847], for which the IC50 is less than 10 nM.

Consider `CCc1cc2c(cc1Nc1nc(=O)c(OC)cn1Cc1cc(F)cc(F)c1)OCCO2` [Compound I-0797], for which the IC50 lay in the range of 10 to 100 nM.

On to `CCc1cc(Br)ccc1Nc1nc(=O)c(OC)cn1Cc1ccc(F)c(Cl)c1` [Compound I-0631], for which the IC50 fell in the range of 10 to 100 nM.

As for `Cc1nc2cc(Cl)c(Nc3nc(=O)c(F)cn3Cc3ccc(F)c(F)c3)cc2o1` [Compound I-1076], the IC50 is less than 10 nM.

As for `COc1ccc(C)c(Nc2nc(=O)c(OC)cn2Cc2cccc(Cl)c2)c1` [Compound I-0627], the IC50 fell in the range of 10 to 100 nM.

Turning to `Cc1ccc(CO)cc1Nc1nc(=O)cnn1Cc1cc(F)c(F)c(F)c1` [Compound I-1255], the IC50 is less than 10 nM.

Turning to `COc1ccc(Cl)c(Nc2cc(=O)c(OC)cn2Cc2ccc(F)c(Cl)c2)c1` [Compound I-0955], the IC50 lay in the range of 10 to 100 nM.

As to `COc1ccc(Nc2nc(=O)cnn2Cc2ccccc2)c(C)c1` [Compound I-1276], the IC50 lay in the range of 10 to 100 nM.

For `COc1ccc(Nc2nc(=O)c(Cl)cn2Cc2ccc(F)c(F)c2)c(C)c1` [Compound I-0844], the IC50 was less than 10 nM.

For `COc1cn(Cc2ccc(F)c(F)c2)c(Nc2cc(S(C)(=O)=O)c(C)cc2C)nc1=O` [Compound I-0605], the IC50 was 10 to 100 nM.

As for `COc1cn(Cc2cc(F)cc(F)c2)c(Nc2cccc3c2ccc(=O)n3C)nc1=O` [Compound I-0882], the concentration for half-maximal inhibition (IC50) lay in the range of 500 to 1000 nM.

For the molecule `Cc1c(Nc2nc(=O)c(F)cn2Cc2cc(F)cc(F)c2)ccc2scnc12` [Compound I-1202], the half-inhibitory concentration (IC50) was less than 10 nM.

Regarding `COc1cc(Nc2nc(=O)c(F)cn2Cc2cc(F)cc(F)c2)c(C)nc1F` [Compound I-1118], the 50% inhibitory concentration (IC50) was 100 to 500 nM.

In general, IC50 refers to the concentration that inhibits the measured activity by half.
